Activity calls are given as the source filed them. The calls are words filed in the database; no cut-off is given here.
Tests used:
Mus musculus [1] = experiment: Induction of Th1/2-balanced cytokine response in BALB/c mouse assessed as increase in IFN-gamma secretion in serum at 2.33 nmol, ip administered as single dose in liposomal formulation and measured after 24 hrs by ELISA; type: functional, organism-based
Mus musculus [2] = experiment: Induction of Th1/2-balanced cytokine response in BALB/c mouse assessed as increase in IFN-gamma secretion in serum at 0.5 ug, ip administered as single dose in liposomal formulation and measured after 24 hrs by ELISA; type: functional, organism-based; conditions: dose 0.5 µg
Mus musculus [3] = experiment: Induction of Th1/2-balanced cytokine response in BALB/c mouse assessed as increase in IL-4 secretion in serum at 0.5 ug, ip administered as single dose in liposomal formulation and measured after 24 hrs by ELISA; type: functional, organism-based; conditions: dose 0.5 µg
Mus musculus [4] = experiment: Induction of Th1/2-balanced cytokine response in BALB/c mouse assessed as increase in IFN-gamma/IL-4 secretion ratio at 0.5 ug, ip administered as single dose in liposomal formulation and measured after 24 hrs by ELISA; type: functional, organism-based; conditions: dose 0.5 µg
Mus musculus [5] = experiment: Induction of Th1/2-balanced cytokine response in C57BL/6 mouse assessed as increase in IFN-gamma secretion in serum at 2.33 nmol, ip administered as single dose in liposomal formulation and measured for 48 hrs by ELISA; type: functional, organism-based
Mus musculus [6] = experiment: Induction of Th1/2-balanced cytokine response in C57BL/6 mouse assessed as increase in IL-4 secretion in serum at 2.33 nmol, ip administered as single dose in liposomal formulation and measured for 48 hrs by ELISA; type: functional, organism-based
Mus musculus [7] = experiment: Induction of Th1/2-balanced cytokine response in BALB/c mouse assessed as activation of immune cells by measuring increase in IL-12 release in serum at 2.33 nmol, ip administered as single dose in liposomal formulation and measured at 6 hrs by ELISA; type: functional, organism-based
[8] = Induction of Th1-specific IFN-gamma secretion in C57BL/6 mouse splenocytes assessed as fold increase in IFN-gamma level in supernatant at 1 nM treated as liposomal formulation and measured after 72 hrs by ELISA relative to alpha-galactosylceramide; type: functional, Splenocyte
[9] = Induction of Th1-specific IFN-gamma secretion in C57BL/6 mouse splenocytes assessed as fold increase in IFN-gamma level in supernatant at 10 nM treated as liposomal formulation and measured after 72 hrs by ELISA relative to alpha-galactosylceramide; type: functional, Splenocyte
Splenocyte [10] = experiment: Induction of Th2-specific IL-4 secretion in C57BL/6 mouse splenocytes assessed as increase in IL-4 level in supernatant at 1 to 10 nM treated as liposomal formulation and measured after 72 hrs by ELISA; type: functional, cell-based; conditions: dose 1-10 nM
Splenocyte [11] = experiment: Cytotoxicity against C57BL/6 mouse splenocytes assessed as reduction in cell viability at 10 to 1000 nM treated as liposomal formulation measured after 72 hrs by MTT assay; type: toxicity, cell-based; conditions: 1 µM, dose 10-1000 nM
Splenocyte [12] = experiment: Induction of Th1-specific IFN-gamma secretion in C57BL/6 mouse splenocytes assessed as increase in IFN-gamma level in supernatant at 100 nM treated as liposomal formulation preincubated for 30 mins with anti-CD1d monoclonal antibody followed by compound addition and measured after 72 hrs by ELISA; type: functional, cell-based
Splenocyte [13] = experiment: Induction of Th2-specific IL-4 secretion in C57BL/6 mouse splenocytes assessed as increase in IL-4 level in supernatant at 100 nM treated as liposomal formulation preincubated for 30 mins with anti-CD1d monoclonal antibody followed by compound addition and measured after 72 hrs by ELISA; type: functional, cell-based
Splenocyte [14] = experiment: (§1) Ex vivo induction of Natural killer T cell mediated dendritic cell activation in C57BL/6 mouse splenocytes assessed as increase in CD80 expression on CD11c-positive dendritic cells at 2.33 nmol, ip administered as single dose in liposomal formulation measured after 24 hrs by flow cytometry analysis (reference value: 8.4%); type: functional
Splenocyte [15] = experiment: as §1, with “CD86” for “CD80”, “8.9%)” for “8.4%)”; type: functional
Splenocyte [16] = experiment: as §1, with “proportion of IFN-gamma positive natural killer” for “CD80 expression on CD11c-positive dendritic”, “2.74%)” for “8.4%)”; type: functional
[17] = molecular target: T1, Antigen-presenting glycoprotein CD1d (Mus musculus) (UniProt P11609+P11610); experiment: Binding affinity to Cd1D in C57BL/6 mouse BMDC cells assessed as glycolipid presentation by measuring glycolipid/Cd1D complex formation at 100 nM treated as liposomal formulation and measured at 6 to 24 hrs by L363 cell surface staining based flow cytometry analysis; conditions: time 6-24 hrs
[18] = molecular target: T1, Antigen-presenting glycoprotein CD1d (Mus musculus); experiment: Binding affinity to Cd1D in C57BL/6 mouse BMDC cells assessed as glycolipid presentation by measuring glycolipid/Cd1D complex formation at 100 nM treated as liposomal formulation preincubated for 12 hrs and cells further recultured without compound for 2 to 12 hrs by pulse-chase analysis; type: cell-based
[19] = molecular target: T1, Antigen-presenting glycoprotein CD1d (Mus musculus); experiment: Binding affinity to Cd1D in intact C57BL/6 mouse BMDC cells assessed as glycolipid/Cd1D complex formation by measuring strong staining of cell membrane at 100 nM treated as liposomal formulation and measured after 18 hrs by L363 mAb staining based confocal microscopic analysis
B16-F10 [20] = experiment: Antitumor activity against mouse B16-F10 cells implanted in C57BL/6 mouse assessed as reduction in metastatic nodules in lung at 0.58 nmol, ip administered as single dose in liposomal formulation for 1 day followed by tumor inoculation and measured after 3 weeks; type: functional, organism-based; conditions: time 22.0 day
B16-F10 [21] = experiment: (§2) Antitumor activity against mouse B16-F10 cells implanted in C57BL/6 mouse assessed as reduction in number of metastatic nodules in lung at 0.58 nmol, ip administered as single dose in liposomal formulation for 1 day followed by tumor inoculation and measured after 3 weeks relative to control; type: functional; set-up: scale not given: the % may be the effect or the level left; conditions: time 22 day
B16-F10 [22] = experiment: Antitumor activity against mouse B16-F10 cells implanted in C57BL/6 mouse assessed as suppression of tumor progression at 0.58 nmol, ip administered as single dose in liposomal formulation for 1 day followed by tumor inoculation and measured after 3 weeks; type: functional, organism-based; conditions: time 22.0 day
B16-F10 [23] = experiment: as §2, with “inhibition” for “reduction in number”, “of” for “of metastatic nodules in”, “lung metastasis” for “lung”, “weeks by H and E staining based analysis” for “weeks”; type: functional; conditions: time 22 day
Mus musculus [24] = experiment: Induction of Th1/2-balanced cytokine response in BALB/c mouse assessed as fold increase in IL-4 secretion in serum at 2.33 nmol, ip administered as single dose in liposomal formulation and measured after 2 hrs by ELISA relative to control; type: functional
Mus musculus [25] = experiment: Induction of Th1/2-balanced cytokine response in BALB/c mouse assessed as fold increase in IFN-gamma secretion in serum at 2.33 nmol, ip administered as single dose in liposomal formulation and measured after 24 hrs by ELISA relative to control; type: functional
Mus musculus [26] = experiment: Induction of Th1/2-balanced cytokine response in BALB/c mouse assessed as fold increase in IL-4 secretion in serum at 2.33 nmol, ip administered as single dose in liposomal formulation and measured after 6 to 48 hrs by ELISA; type: functional, organism-based; conditions: time 6-48 hrs

SMILES | Activity (Mus musculus [2]) | Activity (Mus musculus [3]) | Activity (Mus musculus [4]) | Activity (Mus musculus [5]) | Activity (Mus musculus [6]) | Activity (Mus musculus [7]) | fold change (FC) [8] | fold change (FC) [9] | Activity (Splenocyte [10]) | Activity (Splenocyte [11]) | Activity (Splenocyte [12]) | Activity (Splenocyte [13]) | Activity (Splenocyte [14]) | Activity (Splenocyte [15]) | Activity (Splenocyte [16]) | Activity [17] | Activity [19] | Activity (B16-F10 [20]) | Activity (B16-F10 [21]) | further results
CCCCCCCCCCCCCC[C@@H](O)[C@@H](O)[C@H](CO[C@H]1O[C@H](CO)[C@H](O)[C@H](O)[C@H]1O)NC(=O)CCCCCCCCCCNS(=O)(=O)CCCCCCCCCCCCC | Active | Active | Active | Active | Active | Active | 9.6 | 7.7 | inactive | Non-Toxic | inactive | inactive | 32.9% | 44.6% | 11.2% | Active | Active | Active | 82% | Activity (Mus musculus [1]): Active; Activity [18]: Active; Activity (B16-F10 [22]): Active; inhibition (INH) (B16-F10 [23]): ~100%
CCCCCCCCCCCCCC[C@@H](O)[C@@H](O)[C@H](CO[C@H]1O[C@H](CO)[C@H](O)[C@H](O)[C@H]1O)NC(=O)CCCCCCCCCNS(=O)(=O)CCCCCCCCCCCCCC | – | – | – | – | – | – | – | – | – | Non-Toxic | inactive | inactive | – | – | – | – | – | – | – | –
CCCCCCCCCCCCCC[C@@H](O)[C@@H](O)[C@H](CO[C@H]1O[C@H](CO)[C@H](O)[C@H](O)[C@H]1O)NC(=O)CCCCCCCCCCCNS(=O)(=O)CCCCCCCCCCCC | Active | Active | Active | Active | Active | Active | 6.2 | 4.7 | inactive | Non-Toxic | inactive | inactive | 33.9% | 46.8% | 12% | Active | Active | Active | 66% | fold change (FC) (Mus musculus [24]): 4.7; fold change (FC) (Mus musculus [25]): 7; Activity (Mus musculus [26]): inactive
CCCCCCCCCCCCCC[C@@H](O)[C@@H](O)[C@H](CO[C@H]1O[C@H](CO)[C@H](O)[C@H](O)[C@H]1O)NC(=O)CCCCCCCCCCCCCNS(=O)(=O)CCCCCCCCCC | – | – | – | – | – | – | – | – | – | Non-Toxic | inactive | inactive | – | – | – | – | – | – | – | –
CCCCCCCCCCCCCCCCCCCCCCCCCC(=O)N[C@@H](CO[C@H]1O[C@H](CO)[C@H](O)[C@H](O)[C@H]1O)[C@H](O)[C@H](O)CCCCCCCCCCCCCC [RGI-7000] | – | – | – | – | – | – | – | – | – | Non-Toxic | inactive | inactive | 27.6% | 32% | 6.11% | – | – | Active | – | –
CCCCCCCCCCCCCC[C@@H](O)[C@@H](O)[C@H](CO[C@H]1O[C@H](CO)[C@H](O)[C@H](O)[C@H]1O)NC(=O)CCCCCCCCCCCCNS(=O)(=O)CCCCCCCCCCC | – | – | – | – | – | – | – | – | – | Non-Toxic | inactive | inactive | – | – | – | – | – | – | – | –

— ChEMBL document CHEMBL5550202, “Rationally Designed Highly Potent NKT Cell Agonists with Different Cytokine Selectivity through Hydrogen-Bond Interaction” (J Med Chem, 2024)
